Key:
[1] = test system: methicillin resistant Staphylococcus aureus (MRSA); assay: standard microtiter broth serial dilution test, MRSA strains; type: cell-based; conditions: 23 strains of MRSA; approximately 10^5 colony forming units, 35° for 18 hours
Protocol: (§1) The antibacterial activity of the compounds of the invention may be readily determined using conventional test procedures. For example the antibacterial activity of the compounds of the invention was determined using a standard mictoriter broth serial dilution test. In this test the broth was incubated with approximately 10^5 colony forming units of the test organism and incubated at 35° for 18 hours in the presence of test compound.
(§2) In this list the compounds of the invention were tested using this procedure against 23 strains of MRSA and 10 strains of MRSE and the resultant minimum inhibitory concentrations (MIC90) in mg/litre determined.

[2] = test system: methicillin resistant Staphylococcus epidermidis (MRSE); assay: standard microtiter broth serial dilution test, MRSE strains; type: cell-based; conditions: 10 strains of MRSE; approximately 10^5 colony forming units, 35° for 18 hours
Protocol: as §1, §2

[3] = toxicity on administration to rats; type: in vivo; conditions: doses up to 1000 mg/kg
Source text: Compounds of the invention are in general non-toxic and therapeutically effective doses.

SMILES	MRSA MIC90 [1] [mg/L]	MRSE MIC90 [2] [mg/L]	untoward effects [3]
C[C@@H](O)[C@H]1C(=O)N2C(C(=O)[O-])=C3/C(=C/c4nc(-c5ccccc5)cs4)CCC[C@@H]3[C@H]12.[Na+] [Example 7, Sodium (8S,9R,10S,12R)-1-aza-10-(1-Hydroxyethyl)-11-oxo-4-[(E)-(4-phenylthiazol-2-yl)methylene]-tricyclo-[7,2,0,0^3.8]-undec-2-ene-2-carboxylate]	4	2	
C[C@@H](O)[C@H]1C(=O)N2C(C(=O)[O-])=C3/C(=C/c4cc5cnccc5o4)CCC[C@@H]3[C@H]12.[Na+] [Example 13]	4	4	
C[C@@H](O)[C@H]1C(=O)N2C(C(=O)[O-])=C3/C(=C/c4csc5ccccc45)CCC[C@@H]3[C@H]12.[Na+] [Example 17, Sodium (8S,9R,10S,12R)-1-aza-10-(1-Hydroxyethyl)-11-oxo-4-[(E-)(benzothiophen-3-yl)methylene]-tricyclo-[7,2,0,0^3.8]-undec-2-ene-2-carboxylate]	4	2	
C[C@@H](O)[C@H]1C(=O)N2C(C(=O)[O-])=C3/C(=C/c4ccncc4)CCC[C@@H]3[C@H]12.[Na+] [Example 5, Sodium (8S,9R,10S,12R)-1-aza-10-(1-Hydroxyethyl)-11-oxo-4-[(E)-(pyrid-4-yl)methylene]-tricyclo-[7,2,0,0^3.8]-undec-2-ene-2-carboxylate]	4	2	no untoward effects
Cc1cc(/C=C2\CCC[C@H]3C2=C(C(=O)[O-])N2C(=O)[C@H]([C@@H](C)O)[C@@H]32)cc(C)n1.[Na+] [Example 9, Sodium (8S,9R,10S,12R)-1-aza-10-(1-Hydroxyethyl)-11-oxo-4-[(E)-(2,6-dimethylpyridin-4-yl)methylene]-tricyclo-[7,2,0,0^3.8]-undec-2-ene-2-carboxylate]	8	4	
C[C@@H](O)[C@H]1C(=O)N2C(C(=O)[O-])=C3/C(=C/c4ccnc(Cl)c4)CCC[C@@H]3[C@H]12.[Na+] [Example 12]	4	2	
C[C@@H](O)[C@H]1C(=O)N2C(C(=O)[O-])=C3/C(=C/c4nc(-c5ccncc5)cs4)CCC[C@@H]3[C@H]12.[Na+] [Example 3, Sodium (8S,9R,10S,12R)-1-aza-10-(1-Hydroxyethyl)-11-oxo-4-[(E)-(4-(4′-pyridyl)thiazol-2-yl)methylene]-tricyclo-[7,2,0,0^3.8]-undec-2-ene-2-carboxylate]	4	2	
C[C@@H](O)[C@H]1C(=O)N2C(C(=O)[O-])=C3/C(=C/c4cc5ccccc5o4)CCC[C@@H]3[C@H]12.[Na+] [Example 11]	4	2	
C[C@@H](O)[C@H]1C(=O)N2C(C(=O)[O-])=C3/C(=C/c4ccc(Cl)c([N+](=O)[O-])c4)CCC[C@@H]3[C@H]12.[Na+] [Example 15, Sodium (8S,9R,10S,12R)-1-aza-10-(1-Hydroxyethyl)-11-oxo-4-[(E)-(4-chloro-3-nitro-phenyl)methylene]-tricyclo-[7,2,0,0^3.8]-undec-2-ene-2-carboxylate]	4	2	
C[C@@H](O)[C@H]1C(=O)N2C(C(=O)[O-])=C3/C(=C/c4ccc([N+](=O)[O-])cc4)CCC[C@@H]3[C@H]12.[Na+] [Example 6, Sodium (8S,9R,10S,12R)-1-aza-10-(1-Hydroxyethyl)-11-oxo-4-[(E)-(4-nitrophenyl)methylene]-tricyclo-[7,2,0,0^3.8]-undec-2-ene-2-carboxylate]	2	2	
C[C@@H](O)[C@H]1C(=O)N2C(C(=O)[O-])=C3/C(=C/c4ccccc4)CCC[C@@H]3[C@H]12.[Na+] [Example 1, Sodium (8S,9R,10S,12R)-1-aza-10-(1-Hydroxyethyl)-11-oxo-4-[(E)-phenylmethylene]-tricyclo-[7,2,0,0^3.8]-undec-2-ene-2-carboxylate]	8	4	
Cc1cc(/C=C2\CCC[C@H]3C2=C(C(=O)[O-])N2C(=O)[C@H]([C@@H](C)O)[C@@H]32)ccn1.[Na+] [Example 10, Sodium (8S,9R,10S,12R)-1-aza-10-(1-Hydroxyethyl)-11-oxo-4-[(E)-(2-methylpyridin-4-yl)methylene]-tricyclo-[7,2,0,0^3.8]-undec-2-ene-2-carboxylate]	8	4	
C[C@@H](O)[C@H]1C(=O)N2C(C(=O)[O-])=C3/C(=C/c4cc(-c5cc[n+](CC(N)=O)cc5)cs4)CCC[C@@H]3[C@H]12 [Example 18, (8S,9R,10S,12R)-1-aza-10-(1-Hydroxyethyl)-11-oxo-4-[(E)-(4-(1′-(carbamoylmethyl)pyridinium-4-′-yl)thiophen-2-yl)methylene]-tricyclo-[7,2,0,0^3.8]-undec-2-ene-2-carboxylate]	4	2	
C[C@@H](O)[C@H]1C(=O)N2C(C(=O)[O-])=C3/C(=C/c4ccnc(N)c4)CCC[C@@H]3[C@H]12.[Na+] [Example 14, Sodium (8S,9R,10S,12R)-1-aza-10-(1-Hydroxyethyl)-11-oxo-4-[(E)-(2-aminopyrid-4-yl)methylene]-tricyclo-[7,2,0,0^3.8]-undec-2-ene-2-carboxylate]	8	4	
C[C@@H](O)[C@H]1C(=O)N2C(C(=O)[O-])=C3/C(=C/c4cccc(-c5ccncc5)c4)CCC[C@@H]3[C@H]12.[Na+] [Example 8, Sodium (8S,9R,10S,12R)-1-aza-10-(1-Hydroxyethyl)-11-oxo-4-[(E)-(3-(4′-pyridyl)phenyl)methylene]-tricyclo-[7,2,0,0^3.8]-undec-2-ene-2-carboxylate]	2	2	
C[C@@H](O)[C@H]1C(=O)N2C(C(=O)[O-])=C3/C(=C/c4cc5ccccc5s4)CCC[C@@H]3[C@H]12.[Na+] [Example 16, Sodium (8S,9R,10S,12R)-1-aza-10-(1-Hydroxyethyl)-11-oxo-4-[(E)-(benzothiophen-2-yl)methylene]-tricyclo-[7,2,0,0^3.8]-undec-2-ene-2-carboxylate]	2	1	
